Read-outs that look alike come from different tables or passages of the source.

The term IC50 denotes the concentration needed to halve the response being measured. A word on the half-life: it is the time in which the quantity being followed falls by half. Lower therefore signals fast loss.

Data set [1] deals with T1, CYP2C9 (Homo sapiens, UniProt P11712).
T1 construct: from tissue; host or cells: human liver microsomes
Kind of data set: CYP inhibition in human liver microsomes. In kind it is in vitro ADME. The settings on record: read-out: CPY450 inhibition (IC50), CYP2C9. How it is done: (§1) CYP inhibition was tested in isolated microsomes for CYP2D6, CYP3A4, CYP1A2, CYP2C9, CYP2C19, CYP2C8, and CYP2B6[66]. Briefly, increasing concentrations of Mal-gluc or DHCA were incubated with human liver microsomes (HLM) in the presence of 2 mM NADPH in 100 mM potassium phosphate (pH 7.4) containing 5 mM magnesium chloride and a specific probe substrate for different CYPs: tacrine (CYP1A2), amodiaquine (CYP2C8), tolbutamide (CYP2C9), S-mephenytoin (CYP2C19), dextromethorphan (CYP2D6), midazolam/testosterone (CYP3A4/5), or bupropion (CYP2B6). CYP-specific inhibitors were included alongside the test compound as a positive control, including α-naphthoflavone (CYP1A2), quercetin (CYP2C8), ketoconazole (CYP3A4/5), quinidine (CYP2D6), sulfaphenazole (CYP2C9), and ticlopidine (CYP2C19, CYP2B6). After incubation at 37 °C, the reactions were terminated by addition of a methanol-containing internal standard (propranolol) for analytical quantification. The quenched samples were then incubated at 4 °C for 10 min and centrifuged at 4 °C for 10 min. The supernatant was removed and the probe substrate metabolite was analyzed by LC-MS/MS (Agilent Technologies Triple Quad LC-MS/MS).
In general terms: Liver microsomes are a subcellular fraction often used to study metabolism.

For data set [2], the target named is T2, CYP2C8 (Homo sapiens, UniProt P10632).
T2 construct: from tissue; host or cells: human liver microsomes
Kind of data set: CYP inhibition in human liver microsomes. Type of data set: in vitro ADME. The settings on record: read-out: CPY450 inhibition (IC50), CYP2C8. How it is done:
as §1

For data set [3], the target named is CYP3A4 (Homo sapiens, UniProt P08684). Kind of data set: CYP inhibition in human liver microsomes. Type of data set: in vitro ADME. The settings on record: read-out: CPY450 inhibition (IC50), CYP3A4. The protocol:
as §1

Data set [4] deals with C57BL/6 mice subjected to RSDS. The data set can be described thus: RSDS, prophylactic treatment. Type of data set: in vivo, mouse. The settings on record: 5 mg/kg-BW/day DHCA or 500 ng/kg-BW/day Mal-gluc alone prior to RSDS. How it is done: To test the efficacy of BDPP in promoting resilience in stress-mediated depression, we treated C57BL/6 male mice with BDPP or vehicle for 2 weeks prior to and throughout RSDS and then performed social avoidance/interaction (SI) testing (Fig. 1a).
Based on the dose–response studies, we chose 5 mg/kg-BW/day DHCA and 500 ng/kg-BW/day Mal-gluc for the preclinical studies. We tested the prophylactic effect by treating mice with a mixture of DHCA/Mal-gluc for 2 weeks prior to and throughout RSDS (Fig. 3c). […] Following SI testing, mice were subjected to a sucrose preference test to evaluate the treatment effect on stress-induced anhedonia.
Male C57BL/6 mice (8-week-old) were randomly grouped into two groups: one group received regular drinking water; the other group was treated with BDPP composed of GSPE, RESV and CGJ, delivered through their drinking water, starting 2 weeks prior to RSDS and throughout RSDS and SI testing. The calculated daily intake of GSPE was 200 mg/kg body weight (BW), RESV was 300 mg/kg BW and CGJ was 1 ml/day.
To facilitate the follow-up sucrose preference test, the delivery of the drinking solution was through two 50-ml tubes with sipper top for each cage, starting from the day of initiation of treatment and the two tubes were regularly switched during the treatment. In parallel control studies, mice received similar treatment but were not subjected to RSDS. For therapeutic studies, susceptible mice (SI <0.8) were identified and randomly grouped into two groups either treated with vehicle or DHCA/Mal-gluc for 2 weeks. Mice were subjected to SI, sucrose preference, and splash testing. For testing the therapeutic efficacy of Imipramine, susceptible mice were treated with Imipramine (20 mg/kg-BW/day, i.p.) for 34 days. On day 35, mice were tested for SI 15–20 min after the last injection. […]
All social interaction (SI) tests were performed under red-light conditions. […] Their movements were automatically monitored and recorded (Ethovision 3.0; Noldus Information Technology) for 2.5 min in the absence (target absent phase) of a novel CD-1 mouse and followed by 2.5 min exploratory behavior in the presence of a caged CD-1 mouse (target present phase). SI behavior was then calculated as a ratio of the time spent in the interaction zone with the target present divided by the time spent in the interaction zone with the target absent. […]
Mice were given access to a two-bottle choice of water or 1% sucrose solution and the consumption of each solution was recorded once every 24 h for 48 or 72 h. […] Sucrose preference was calculated as a percentage of sucrose consumption over total liquid consumption. […]

In data set [5] the test system is MSN-enriched primary neurons and PBMCs. The data set can be described thus: LDH release assay. In kind it is cell-based, mouse. How it is done: (§2) MTT and LDH release assays were conducted in MSN-enriched primary neurons and in PBMCs[64]. Cellular cytotoxicity was conducted in HepG2 cells using high content screening (HCS) protocols. Briefly, HepG2 cells were plated on 384-well tissue culture treated black walled clear bottomed polystyrene plates and treated with varying concentrations of Mal-gluc or DHCA. The cells were loaded with the relevant dye/antibody for each cell-health marker following incubation, including cell count, markers for nuclear size, DNA structure, cell membrane permeability, mitochondrial mass, mitochondrial membrane potential and cytochrome C release. The plates were then scanned using an automated fluorescent cellular imager ArrayScanr (Thermo Scientific Cellomics).
(In general: LDH leaks from cells whose membrane has failed.)

The nature of data set [6]: Plasma stability, mouse plasma. To be noted: 37 °C. In kind it is in vitro ADME. The protocol: Compound stability in mouse and human plasma and in mouse brain homogenate were conducted, [45]. Specifically, Mal-gluc or DHCA was incubated in duplicate with plasma at 37 °C and samples were taken at various time points and mixed with three volumes of ice-cold Stop Solution (methanol containing propranolol, diclofenac, or other internal standard). Samples were centrifuged to remove precipitated protein, and the supernatants were analyzed by LC/MS/MS to quantitate for remaining test compound. Data are converted to percentage remaining by dividing by the time zero concentration value. Data are fit to a first-order decay model to determine half-life. Plasma protein binding were conducted using both mouse and human plasma.

The subject of data set [7] is MSN-enriched primary neurons and PBMCs. Kind of data set: MTT assay. Type of data set: cell-based, mouse. The protocol:
as §2

T2 sequence (P10632 whole entry): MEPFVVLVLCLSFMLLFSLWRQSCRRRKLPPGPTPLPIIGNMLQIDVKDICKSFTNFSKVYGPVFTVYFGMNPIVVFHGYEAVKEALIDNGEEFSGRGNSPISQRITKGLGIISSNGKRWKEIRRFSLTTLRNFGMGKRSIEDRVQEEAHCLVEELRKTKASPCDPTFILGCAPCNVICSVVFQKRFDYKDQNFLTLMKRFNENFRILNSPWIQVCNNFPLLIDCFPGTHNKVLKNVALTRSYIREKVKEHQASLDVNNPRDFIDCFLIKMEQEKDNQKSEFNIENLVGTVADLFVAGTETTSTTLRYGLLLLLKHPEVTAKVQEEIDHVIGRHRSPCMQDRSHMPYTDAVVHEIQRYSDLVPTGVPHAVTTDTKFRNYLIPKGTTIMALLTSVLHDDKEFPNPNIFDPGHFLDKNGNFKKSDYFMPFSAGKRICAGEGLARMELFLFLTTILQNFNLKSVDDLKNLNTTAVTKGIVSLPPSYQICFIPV
CYP3A4, sequence (P08684 2-503): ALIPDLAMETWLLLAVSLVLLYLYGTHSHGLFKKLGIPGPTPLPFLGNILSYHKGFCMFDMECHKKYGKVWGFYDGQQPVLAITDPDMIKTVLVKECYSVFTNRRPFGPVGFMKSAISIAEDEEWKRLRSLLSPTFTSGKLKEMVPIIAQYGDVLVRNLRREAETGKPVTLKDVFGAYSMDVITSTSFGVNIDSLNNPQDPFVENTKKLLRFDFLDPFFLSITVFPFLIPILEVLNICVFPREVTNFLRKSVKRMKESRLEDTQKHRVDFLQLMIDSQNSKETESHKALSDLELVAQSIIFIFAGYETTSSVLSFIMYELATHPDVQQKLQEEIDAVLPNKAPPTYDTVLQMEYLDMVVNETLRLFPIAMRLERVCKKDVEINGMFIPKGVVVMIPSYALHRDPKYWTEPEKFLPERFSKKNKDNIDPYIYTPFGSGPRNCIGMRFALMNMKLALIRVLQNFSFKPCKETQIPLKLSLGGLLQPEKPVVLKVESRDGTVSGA
T1 sequence (P11712 whole entry): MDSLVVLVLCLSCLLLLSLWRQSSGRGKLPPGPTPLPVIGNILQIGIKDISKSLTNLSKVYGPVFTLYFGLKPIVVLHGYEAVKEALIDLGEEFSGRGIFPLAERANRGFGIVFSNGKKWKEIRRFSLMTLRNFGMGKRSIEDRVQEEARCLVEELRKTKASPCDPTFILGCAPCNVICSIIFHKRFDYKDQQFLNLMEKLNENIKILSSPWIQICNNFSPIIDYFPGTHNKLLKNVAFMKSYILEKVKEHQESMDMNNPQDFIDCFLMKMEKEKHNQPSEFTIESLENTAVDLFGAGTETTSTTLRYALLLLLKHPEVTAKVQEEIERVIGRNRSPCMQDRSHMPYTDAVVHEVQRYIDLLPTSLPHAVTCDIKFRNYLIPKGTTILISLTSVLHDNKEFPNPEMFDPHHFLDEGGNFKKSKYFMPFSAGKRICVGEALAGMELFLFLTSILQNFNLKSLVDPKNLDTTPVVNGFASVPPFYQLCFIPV

`O=C(O)CCc1ccc(O)c(O)c1` [DHCA, 3(3,4-dihydroxy-phenyl) propionic acid]: the IC50 was greater than 25 µM in data set [1]; greater than 25 µM in data set [2]; greater than 25 µM in data set [3] (human, pH 7.4, probe midazolam/testosterone). Also, in data set [4], the “anhedonia (sucrose preference), single compound treatment” value was “neither treatment significantly promoted resilience (Supplementary Fig. 7a) or alleviate anhedonia”. The “resilience (SI), single compound treatment” value in data set [4] is recorded as “neither treatment significantly promoted resilience”. Besides, the “LDH assay, % of vehicle control” value in data set [5] was 100%. This molecule came in with a half-life in data set [6] (mouse, plasma) of 44.1 min. Moreover, the “MTT assay, % of vehicle control” value in data set [7] came out at 100%.
For the molecule `COc1cc(-c2[o+]c3cc(O)cc(O)c3cc2O[C@@H]2O[C@H](CO)[C@@H](O)[C@H](O)[C@H]2O)cc(OC)c1O` [Mal-gluc], the IC50 in data set [1], in data set [2] and in data set [3] was greater than 25 µM each time. Moreover, in data set [4], the “anhedonia (sucrose preference), single compound treatment” value was “neither treatment significantly promoted resilience (Supplementary Fig. 7a) or alleviate anhedonia”. Besides, the “resilience (SI), single compound treatment” value in data set [4] is listed as “neither treatment significantly promoted resilience”. In data set [5], the “LDH assay, % of vehicle control” value is 100%. For the same molecule, the “Plasma stability, Half-life (mouse plasma)” value in data set [6] came out at 201 min. The “MTT assay, % of vehicle control” value in data set [7] turned out to be 100%.

The record behind these values is paper PMC5797143, “Epigenetic modulation of inflammation and synaptic plasticity promotes resilience against stress in mice” (Nature Communications, 2018).
